Data: patent publication US20220308043A1, “FLUORESCENT PROBES FOR IDENTIFICATION AND QUANTIFICATION OF HEPATIC TRANSPORTERS IN VITRO AND IN VIVO” (Université d'Orléans, priority 2021, published 2022)
“Also recorded” adds a separate entry of the source. Like-named read-outs stand apart in the source and are kept apart here.

What was measured:
[1] = tested on: BC; conditions: cited from earlier work
[2] = tested on: Efflux transporters; conditions: cited from earlier work
[3] = tested on: bile canaliculi (BC) of HEPARG® cells; experiment: Bile canaliculi alterations evaluation for cholestasis-DILI prediction in HEPARG® cells; assay type: cell-based, human; conditions: for alteration of bile canaliculi (BC) revealed by fluorescent probe 15: HEPARG® cells, probe 15, versus control cells incubated only with 15, FIG. 9
Experimental: To investigate the application of fluorescent probes for predicting drug-induced cholestasis, cholestatic effects of six reference cholestatic drugs are evaluated by using two protocols.

[4] = target: T1, BSEP (Homo sapiens, UniProt O95342); experiment: Efflux assay approach 2: uptake in ABC transporter vesicles (Sf9) in the presence of ATP or AMP; assay type: in vitro ADME; set-up: purchased Genomembrane GM3010, GM3030 and GM3050 (reagent kits); host or cells: Sf9 cells; conditions: 10 minutes, FIG. 6
Experimental: Fluorescent probes were incubated with vesicles at 1 and 10 μM during 10 minutes, while the reference substrates were incubated at the test conditions indicated above. • Approach 3: specificity assessment with HEPARG® MRP2 KO
Transporter assay. Reagent kits for Vesicular Transport Assay from Genomembrane (GM3010, GM3030 and GM3050) were used to determine the specificity of ABC transporters versus tested probes.
The vesicles transfected with BSEP transporter were incubated with the 2 probes 54 and 55 in the presence of ATP or AMP in order to determine the interaction specificity between the probe and the transporter.
Target sequence in this assay (O95342 whole entry, species assumed): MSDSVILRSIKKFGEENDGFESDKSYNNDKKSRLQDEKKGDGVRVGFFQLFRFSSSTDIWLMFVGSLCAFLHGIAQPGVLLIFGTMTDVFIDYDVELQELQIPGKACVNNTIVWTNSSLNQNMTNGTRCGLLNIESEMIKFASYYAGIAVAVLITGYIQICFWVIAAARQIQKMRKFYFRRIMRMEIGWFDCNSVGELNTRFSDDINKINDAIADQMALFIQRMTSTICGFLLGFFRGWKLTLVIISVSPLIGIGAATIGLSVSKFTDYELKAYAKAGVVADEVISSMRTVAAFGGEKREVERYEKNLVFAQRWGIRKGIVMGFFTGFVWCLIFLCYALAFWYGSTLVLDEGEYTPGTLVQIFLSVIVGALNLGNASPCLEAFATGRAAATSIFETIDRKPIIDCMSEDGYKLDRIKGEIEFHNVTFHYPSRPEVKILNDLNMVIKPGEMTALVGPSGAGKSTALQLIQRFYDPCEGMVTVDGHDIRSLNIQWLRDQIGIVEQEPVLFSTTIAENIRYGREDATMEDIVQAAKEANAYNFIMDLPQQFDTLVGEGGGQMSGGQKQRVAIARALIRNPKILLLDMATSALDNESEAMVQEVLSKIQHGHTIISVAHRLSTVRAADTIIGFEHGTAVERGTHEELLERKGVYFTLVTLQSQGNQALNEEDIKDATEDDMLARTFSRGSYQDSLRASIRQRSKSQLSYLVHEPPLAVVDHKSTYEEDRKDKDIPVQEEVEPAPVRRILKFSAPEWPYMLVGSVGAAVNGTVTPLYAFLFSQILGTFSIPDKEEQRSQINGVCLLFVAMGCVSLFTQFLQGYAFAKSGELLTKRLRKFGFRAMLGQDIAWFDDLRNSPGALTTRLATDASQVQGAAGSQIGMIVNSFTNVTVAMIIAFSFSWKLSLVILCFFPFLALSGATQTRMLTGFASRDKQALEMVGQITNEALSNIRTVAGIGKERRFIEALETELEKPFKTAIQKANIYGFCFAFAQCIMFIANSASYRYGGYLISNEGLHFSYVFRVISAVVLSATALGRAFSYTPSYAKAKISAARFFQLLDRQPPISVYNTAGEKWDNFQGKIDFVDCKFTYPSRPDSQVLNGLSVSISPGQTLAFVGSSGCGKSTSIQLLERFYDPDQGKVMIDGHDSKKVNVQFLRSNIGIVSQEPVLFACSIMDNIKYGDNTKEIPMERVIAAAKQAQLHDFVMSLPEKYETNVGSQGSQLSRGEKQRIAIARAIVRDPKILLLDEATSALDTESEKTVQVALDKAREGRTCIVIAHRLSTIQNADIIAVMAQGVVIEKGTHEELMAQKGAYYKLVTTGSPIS

[5] = target: T2, BCRP (Homo sapiens, UniProt Q9UNQ0); experiment: Efflux assay approach 1: canalicular accumulation in wild-type HEPARG® hepatocytes with or without KO143 (BCRP inhibitor); assay type: cell-based; conditions: 3 hours at 37° C., FIG. 4 image C
T2 construct: both uptake transporters and efflux transporters, such as BSEP, MRP2, Pgp and BCRP; host or cells: differentiated wild-type HepaRG hepatocytes
T2 sequence (Q9UNQ0 1-655): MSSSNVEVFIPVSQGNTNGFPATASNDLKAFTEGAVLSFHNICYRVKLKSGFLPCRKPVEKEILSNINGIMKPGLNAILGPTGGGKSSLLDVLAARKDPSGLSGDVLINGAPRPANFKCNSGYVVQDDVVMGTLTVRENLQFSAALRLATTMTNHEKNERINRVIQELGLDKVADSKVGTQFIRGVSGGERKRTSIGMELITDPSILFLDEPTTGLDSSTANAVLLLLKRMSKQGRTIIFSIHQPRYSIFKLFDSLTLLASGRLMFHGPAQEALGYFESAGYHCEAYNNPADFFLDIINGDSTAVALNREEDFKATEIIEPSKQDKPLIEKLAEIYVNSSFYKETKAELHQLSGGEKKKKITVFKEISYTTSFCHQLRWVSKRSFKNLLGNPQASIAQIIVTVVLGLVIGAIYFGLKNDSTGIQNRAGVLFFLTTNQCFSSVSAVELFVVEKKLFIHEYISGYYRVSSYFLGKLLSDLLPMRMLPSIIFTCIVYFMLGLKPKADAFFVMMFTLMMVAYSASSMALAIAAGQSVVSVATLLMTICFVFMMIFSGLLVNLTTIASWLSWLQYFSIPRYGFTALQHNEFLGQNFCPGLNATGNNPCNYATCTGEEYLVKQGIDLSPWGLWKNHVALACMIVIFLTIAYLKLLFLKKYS
Experimental: (§1) After washing with the WME containing 0.1% BSA, the cell cultures are then incubated with WME medium containing 0.1% BSA, with or without the different inhibitors (taurocholate, Verapamil, KO143) at the concentration indicated at the table E2 for 3 hours at 37° C.

[6] = target: T3, MRP2 (Homo sapiens, UniProt Q92887); experiment: Efflux assay approach 3: canalicular accumulation in HEPARG® MRP2 KO and wild-type cells; conditions: for dependence of canalicular efflux on ABC transporter MRP2: conclusion from MRP2 KO accumulation profile; for accumulation / fluorescence intensity in the BC of HEPARG® MRP2 KO cells: probes 1 to 5 μM or 3 μM CDFDA, 37° C., 30 min, FIG. 7
Experimental: (§2) Two HEPARG® cell lines are used as hepatic cell models for in vitro bile acid efflux assay.
(§3) Before the probe incubation assay, both differentiated HEPARG® wild-type and HEPARG® MRP2 KO cell cultures are washed once with Williams' Medium E (WME) with 0.1% BSA and then incubated with 1 to 5 μM of fluorescent probes (54, 55, 15) in WME with 0.1% BSA or 3 μM of CDFDA in WME at 37° C. for 30 min.
(§4) After incubation, the cell cultures are washed 4 times with WME medium containing 0.5% DMSO and 2% FBS.
(§5) The cell cultures are then observed with a fluorescence microscope and the cell images are taken and compared.
(§6) Both the differentiated wild-type HEPARG®™ and MPR2-KO HEPARG® cells are thawed in HEPARG® Thawing/Plating/General Purpose medium (MIL600/ADD670) and cultured in HEPARG® Maintenance/Metabolism Medium (MIL600/ADD620) (according to the user guide of Biopredic International). Fourteen to twenty days after cell seeding and maintenance, the fully differentiated and polarized cell cultures of both the wild-type and MRP2-KO HEPARG® cells are ready and used for the characterization of biological effects of fluorescent probes in term of specific Efflux Transporter-Mediated efflux of probes in the bile canaliculi of HEPARG® hepatocytes.

[7] = target: T4, Pgp (Homo sapiens, UniProt P08183); experiment: Efflux assay approach 1: canalicular accumulation in wild-type HEPARG® hepatocytes with or without Verapamil (Pgp inhibitor); assay type: cell-based; conditions: 3 hours at 37° C., FIG. 4 image D
T4 construct: both uptake transporters and efflux transporters, such as BSEP, MRP2, Pgp and BCRP; host or cells: differentiated wild-type HepaRG hepatocytes
Experimental: as §1

[8] = tested on: primary human hepatocyte (PHH)
Experimental: Four batches of primary human hepatocyte (PHH) are used for in vitro uptake assay:
Cryopreserved PHH are thawed in one-step Hepatocyte Thawing/Plating medium (MIL130) and then cells number and viability were evaluated with trypan blue exclusion test prior to cell treatment.
Influx study. Cryopreserved PHH are thawed in one-step Hepatocyte Thawing/Plating medium (MIL130) and then the cell number and viability are evaluated with trypan blue exclusion test prior to cell treatment. The cells were grown in MW96 at a density of 0.2*10^6/well.
Incubation for uptake evaluation. Incubation buffer: HBSS buffer containing 10 mM Herpes and 0.1% BSA, pH 7.4
The active uptake of each probe was tested according to the Test group 1 conditions. The results are presented in the table below as the percentage of active uptake compared to total uptake.

[9] = target: T1, BSEP; experiment: Efflux assay approach 1: canalicular accumulation in wild-type HEPARG® hepatocytes with or without taurocholate (BSEP competitive inhibitor); assay type: cell-based; set-up: both uptake transporters and efflux transporters, such as BSEP, MRP2, Pgp and BCRP; host or cells: differentiated wild-type HepaRG hepatocytes; conditions: for dependence of efflux into BC on BSEP: conclusion in words; for probe fluorescence / accumulation in BC with taurocholate: taurocholate as competitive inhibitor of BSEP, 3 hours at 37° C., FIG. 4 image B, FIG. 5
Experimental: as §1
Target sequence in this assay (O95342 whole entry): as the sequence (O95342 whole entry, species assumed) above

[10] = tested on: OATPs; conditions: PHH pre-incubated 20 minutes with inhibitor, probe 5 μM, 30 minutes at 37° C.
[11] = tested on: OCT; experiment: Uptake evaluation, Test group 2: probe uptake in PHH with Mpp (OCT inhibitor); assay type: in vitro ADME, human; conditions: PHH pre-incubated 20 minutes with inhibitor, probe 5 μM, 30 minutes at 37° C.
[12] = target: T5, NTCP (Homo sapiens, UniProt Q14973); experiment: Uptake evaluation, Test group 2: probe uptake in PHH with Myrcludex (NTCP inhibitor); assay type: in vitro ADME; conditions: PHH pre-incubated 20 minutes with inhibitor, probe 5 μM, 30 minutes at 37° C.
T5 construct: Cryopreserved PHH are thawed in one-step Hepatocyte Thawing/Plating medium; endogenous in cells; host or cells: cryopreserved primary human hepatocytes (PHH)
T5 sequence (Q14973 1-349): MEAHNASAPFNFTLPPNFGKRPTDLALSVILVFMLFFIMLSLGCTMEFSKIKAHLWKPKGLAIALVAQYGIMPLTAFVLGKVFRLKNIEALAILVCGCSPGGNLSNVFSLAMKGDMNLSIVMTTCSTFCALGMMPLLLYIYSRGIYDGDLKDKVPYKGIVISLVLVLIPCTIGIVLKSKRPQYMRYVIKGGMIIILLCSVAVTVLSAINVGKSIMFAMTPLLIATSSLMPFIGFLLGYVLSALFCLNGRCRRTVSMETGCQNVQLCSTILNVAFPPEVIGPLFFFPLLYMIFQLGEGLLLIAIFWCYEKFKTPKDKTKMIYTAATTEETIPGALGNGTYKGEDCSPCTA

[13] = tested on: OATs; experiment: Uptake evaluation, Test group 2: probe uptake in PHH with Indomethacine/Diclofenac (OATs inhibitor); conditions: PHH pre-incubated 20 minutes with inhibitor, probe 5 μM, 30 minutes at 37° C.
[14] = target: T3, MRP2
Experimental: as §2, §3, §4, §5, §6

[15] = tested on: OATs

T3 sequence (Q92887 whole entry): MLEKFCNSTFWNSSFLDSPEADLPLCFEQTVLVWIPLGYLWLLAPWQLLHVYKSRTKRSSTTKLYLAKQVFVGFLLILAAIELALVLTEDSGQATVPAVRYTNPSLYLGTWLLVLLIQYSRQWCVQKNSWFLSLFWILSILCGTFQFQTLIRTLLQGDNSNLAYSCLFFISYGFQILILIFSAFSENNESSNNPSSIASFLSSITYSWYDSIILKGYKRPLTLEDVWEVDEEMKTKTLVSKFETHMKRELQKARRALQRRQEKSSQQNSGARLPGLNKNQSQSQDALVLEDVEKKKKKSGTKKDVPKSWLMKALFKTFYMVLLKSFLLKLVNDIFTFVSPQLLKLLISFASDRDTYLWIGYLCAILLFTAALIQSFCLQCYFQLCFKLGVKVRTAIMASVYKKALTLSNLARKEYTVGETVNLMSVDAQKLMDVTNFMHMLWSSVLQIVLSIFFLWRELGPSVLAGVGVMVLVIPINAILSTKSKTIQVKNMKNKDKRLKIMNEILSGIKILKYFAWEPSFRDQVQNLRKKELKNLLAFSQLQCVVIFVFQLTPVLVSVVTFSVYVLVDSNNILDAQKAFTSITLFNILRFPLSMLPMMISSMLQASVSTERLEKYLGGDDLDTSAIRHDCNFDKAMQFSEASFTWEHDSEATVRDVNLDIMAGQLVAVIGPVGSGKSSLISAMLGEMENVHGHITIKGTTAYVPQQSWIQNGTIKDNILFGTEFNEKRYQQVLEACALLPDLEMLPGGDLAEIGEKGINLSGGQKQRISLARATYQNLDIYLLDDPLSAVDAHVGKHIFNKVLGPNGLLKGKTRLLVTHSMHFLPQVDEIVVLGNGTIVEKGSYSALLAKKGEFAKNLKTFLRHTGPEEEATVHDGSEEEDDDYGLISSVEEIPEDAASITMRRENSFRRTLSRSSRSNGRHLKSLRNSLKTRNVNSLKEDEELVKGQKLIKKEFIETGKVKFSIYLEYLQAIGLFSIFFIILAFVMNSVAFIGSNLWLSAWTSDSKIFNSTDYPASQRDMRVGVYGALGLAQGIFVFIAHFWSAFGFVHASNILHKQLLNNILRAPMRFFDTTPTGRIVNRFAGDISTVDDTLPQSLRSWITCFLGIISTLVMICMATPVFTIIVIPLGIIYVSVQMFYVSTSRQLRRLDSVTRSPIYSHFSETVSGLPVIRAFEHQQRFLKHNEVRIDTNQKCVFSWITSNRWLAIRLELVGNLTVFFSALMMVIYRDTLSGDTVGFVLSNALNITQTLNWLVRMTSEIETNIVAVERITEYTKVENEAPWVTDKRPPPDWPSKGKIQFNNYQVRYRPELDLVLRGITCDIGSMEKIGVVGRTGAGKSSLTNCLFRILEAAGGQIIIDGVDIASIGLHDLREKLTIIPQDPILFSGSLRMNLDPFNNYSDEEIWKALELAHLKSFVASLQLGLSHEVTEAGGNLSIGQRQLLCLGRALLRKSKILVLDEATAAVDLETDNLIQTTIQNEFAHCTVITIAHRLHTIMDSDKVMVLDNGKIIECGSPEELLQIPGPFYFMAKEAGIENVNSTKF
T4 sequence (P08183 whole entry): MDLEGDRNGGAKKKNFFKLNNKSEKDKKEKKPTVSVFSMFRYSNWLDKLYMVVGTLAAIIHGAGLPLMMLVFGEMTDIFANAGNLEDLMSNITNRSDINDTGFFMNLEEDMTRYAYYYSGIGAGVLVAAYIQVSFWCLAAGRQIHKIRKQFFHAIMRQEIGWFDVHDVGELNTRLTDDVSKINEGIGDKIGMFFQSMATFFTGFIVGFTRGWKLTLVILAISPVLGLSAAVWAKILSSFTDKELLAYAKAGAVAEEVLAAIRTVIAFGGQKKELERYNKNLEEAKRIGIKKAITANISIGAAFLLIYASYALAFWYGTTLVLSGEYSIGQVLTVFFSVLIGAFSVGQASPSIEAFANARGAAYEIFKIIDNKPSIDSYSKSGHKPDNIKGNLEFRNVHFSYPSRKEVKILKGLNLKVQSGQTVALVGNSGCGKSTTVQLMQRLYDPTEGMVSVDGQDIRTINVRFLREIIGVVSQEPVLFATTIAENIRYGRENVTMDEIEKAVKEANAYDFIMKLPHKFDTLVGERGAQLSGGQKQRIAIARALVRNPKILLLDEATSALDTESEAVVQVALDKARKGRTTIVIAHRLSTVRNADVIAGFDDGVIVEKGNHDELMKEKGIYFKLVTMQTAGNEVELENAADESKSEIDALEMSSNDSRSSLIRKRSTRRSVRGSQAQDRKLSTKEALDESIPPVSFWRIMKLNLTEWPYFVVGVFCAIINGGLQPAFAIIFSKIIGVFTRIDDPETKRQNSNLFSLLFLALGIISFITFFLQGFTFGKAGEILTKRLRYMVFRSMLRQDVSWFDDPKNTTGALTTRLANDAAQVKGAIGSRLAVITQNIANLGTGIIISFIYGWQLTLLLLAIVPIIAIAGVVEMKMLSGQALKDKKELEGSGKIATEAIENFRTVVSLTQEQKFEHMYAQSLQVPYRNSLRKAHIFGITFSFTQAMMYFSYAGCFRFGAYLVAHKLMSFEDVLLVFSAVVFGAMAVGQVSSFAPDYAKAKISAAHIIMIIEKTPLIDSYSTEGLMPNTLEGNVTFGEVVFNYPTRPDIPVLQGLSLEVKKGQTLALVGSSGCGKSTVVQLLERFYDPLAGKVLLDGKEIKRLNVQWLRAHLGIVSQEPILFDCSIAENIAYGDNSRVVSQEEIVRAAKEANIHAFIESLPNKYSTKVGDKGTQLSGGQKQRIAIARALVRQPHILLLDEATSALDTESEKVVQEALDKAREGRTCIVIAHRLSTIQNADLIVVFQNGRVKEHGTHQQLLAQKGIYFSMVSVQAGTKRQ

For `CC(=O)Nc1ccc(O)cc1` [Acetaminophen], the “Theoretical effect: Induced effect on BC” value [1] is given as “None”, the “Theoretical effect: Efflux transporters interaction” value [2] is given as “None” and the “Protocol 1 Effects on BC morphology and BA transporters CDFDA” value ([3]; drug 3 hours at 37° C., then probe CDFDA 3 μM 30 min, FIG. 8A) is given as “No effect”.

In the case of `CN(C)CCCN1c2ccccc2Sc2ccc(Cl)cc21` [Chlorpromazine], the “Theoretical effect: Induced effect on BC” value [1] is listed as “constriction”, the “Theoretical effect: Efflux transporters interaction” value [2] is listed as “MRP2/BSEP” and the “alteration of bile canaliculi (BC) revealed by fluorescent probe 15” value ([3]; listed as CPZ) is listed as “remarkable constriction of BC; also recorded: detectable constriction of BC”.

For `COC(=O)CNC(=O)C(CCCCNC(=O)CCc1ccc2n1[B-](F)(F)[N+]1=C(C)C=C(C)C1=C2)NC(=O)CCC(C)C1CCC2C3C(O)CC4CC(O)CCC4(C)C3CCC12C` [Compound 55, Methyl-N6-(3-(5,5-difluoro-7,9-dimethyl-5H-dipyrrolo[1,2-c:2′,1′-f][1,3,2]diazaborinin-3-yl)propanoyl)-N2-((4R)-4-((3R,7S,10S,13R,17R)-3,7-dihydroxy-10,13-dimethylhexadecahydro-1H-cyclopenta[a]phenanthren-17-yl)pentanoyl)-L-lysylglycinate], the “uptake inside the membrane vesicles in the presence of ATP compared to AMP” value ([4]; probe at 10 μM) was “significant uptake”, the “BC accumulation with inhibitor of BCRP (KO143) versus control cells” value [5] was “independent” and the “dependence of canalicular efflux on ABC transporter MRP2” value (shortened to “dependence of canalicular efflux”) [6] was “independent”. For the same molecule, the “accumulation / fluorescence intensity in the BC of HEPARG® MRP2 KO cells” value [6] was “stronger fluorescence intensity”, the “BC accumulation with inhibitor of Pgp (Verapamil) versus control cells” value [7] was “independent” and the “type of probe uptake (active transport or passive diffusion)” value [8] was “mainly mediated by transporters”.

With `COC(=O)C(CCCCNC(=O)CCc1ccc2n1[B-](F)(F)[N+]1=C(C)C=C(C)C1=C2)NC(=O)CCC(C)C1CCC2C3C(O)CC4CC(O)CCC4(C)C3CCC12C` [Compound 54, Methyl N6-(3-(5,5-difluoro-7,9-dimethyl-5H-dipyrrolo[1,2-c:2′,1′-f][1,3,2]diazaborinin-3-yl)propanoyl)-N2-((4R)-4-((3R,7S,10S,13R,17R)-3,7-dihydroxy-10,13-dimethylhexadecahydro-1H-cyclopenta[a]phenanthren-17-yl)pentanoyl)-L-lysinate] the “uptake in vesicles ATP/AMP” value ([4]; whatever probe concentrations (1 and 10 μM)) was “no difference”, the “BC accumulation with inhibitor of BCRP (KO143) versus control cells” value [5] was “no visible difference” and the “dependence of efflux into BC on BSEP” value [9] was “substrate of BSEP”. For the same molecule, the “probe fluorescence / accumulation in BC with taurocholate” value [9] was “significant decrease”, the “accumulation of probe fluorescence in BC of HEPARG® hepatocytes” value ([9]; without any inhibitor, FIG. 4 image A) was “significant accumulation” and the “dependence of canalicular efflux” value [6] was “independent”. For the same molecule, the “accumulation / fluorescence intensity in the BC of HEPARG® MRP2 KO cells” value [6] was “stronger fluorescence intensity”, the “BC accumulation with inhibitor of Pgp (Verapamil) versus control cells” value [7] was “no visible difference” and the “type of probe uptake (active transport or passive diffusion)” value [8] was “mainly mediated by transporters”.

In the case of `COc1ccccc1Oc1c(NS(=O)(=O)c2ccc(C(C)(C)C)cc2)nc(-c2ncccn2)nc1OCCO` [Bosentan], the “Theoretical effect: Induced effect on BC” value [1] is listed as “dilation”, the “Theoretical effect: Efflux transporters interaction” value [2] is listed as “MRP2/BSEP” and the “alteration of bile canaliculi (BC) revealed by fluorescent probe 15” value [3] is listed as “important dilation”.

With “Tauro-nor-THCA-24-DBD [reference compound]” the “% of inhibition Rifampicine (OATPs inhibitor)” value [10] was 24%, the “% of inhibition Mpp (OCT inhibitor)” value [11] was 26% and the “% of inhibition Myrcludex (NTCP inhibitor)” value [12] was 81%. For the same molecule, the “% of inhibition Indomethacine/Diclofenac (OATs inhibitor)” value [13] was 50%.

In the case of `O=S(=O)(c1cccc2cnccc12)N1CCCNCC1` [Fasudil], the “Theoretical effect: Efflux transporters interaction” value [2] is listed as “No”.

In the case of `COC(=O)[C@H](CCCCNc1ccc([N+](=O)[O-])c2nonc12)NC(=O)CC[C@@H](C)C1CCC2C3C(CC[C@@]21C)[C@@]1(C)CC[C@@H](O)CC1C[C@@H]3O` (stereo partly drawn) [Compound 15, Methyl-N2-((4R)-4-((3R,7S,10S,13R)-3,7-dihydroxy-10,13-dimethylhexadecahydro-1H-cyclopenta[a]phenanthren-17-yl)pentanoyl)-N6-(7-nitrobenzo[c][1,2,5]oxadiazol-4-yl)-L-lysinate], the “% of inhibition Rifampicine (OATPs inhibitor)” value [10] is reported as 34%, the “dependence of efflux into BC on BSEP” value [9] is reported as “weakly dependent on BSEP” and the “probe fluorescence / accumulation in BC with taurocholate” value [9] is reported as “partial inhibition profile”. For the same molecule, the “dependence of canalicular efflux” value [14] was “independent”, the “involvement of OATs in the uptake of the probe” value [15] was “mainly dependent on OAT family” and the “% of inhibition Mpp (OCT inhibitor)” value [11] was 11%. The “% Active uptake (Mean value)” value ([8]; human, 30 min, 5 μM, pH 7.4) was 31% and the “% of inhibition Myrcludex (NTCP inhibitor)” value [12] was 16%.

For `Cc1c(C)c2c(c(C)c1O)CCC(C)(COc1ccc(CC3SC(=O)NC3=O)cc1)O2` (centres unmarked) [Troglitazone], the “Theoretical effect: Induced effect on BC” value [1] is given as “constriction”.
